Publication PMC3510196, “Cloning and Characterization of a P2X Receptor Expressed in the Central Nervous System of Lymnaea stagnalis” (PLoS ONE, 2012)

How the values were obtained:
Experiment in all cases: two-electrode voltage clamp, Xenopus oocytes
Type in all cases: cell-based
LymP2X clone 11 = molecular target: T1, LymP2X clone 11 (Lymnaea stagnalis, UniProt K7QP77, INS0MTTK)
T1 construct: full-length plus N-terminal MTTK (upstream in-frame ATG at nucleotide 3) added to LymP2X (GenBank JX524180); Xenopus oocytes
T1 sequence (K7QP77 1-435 INS0MTTK): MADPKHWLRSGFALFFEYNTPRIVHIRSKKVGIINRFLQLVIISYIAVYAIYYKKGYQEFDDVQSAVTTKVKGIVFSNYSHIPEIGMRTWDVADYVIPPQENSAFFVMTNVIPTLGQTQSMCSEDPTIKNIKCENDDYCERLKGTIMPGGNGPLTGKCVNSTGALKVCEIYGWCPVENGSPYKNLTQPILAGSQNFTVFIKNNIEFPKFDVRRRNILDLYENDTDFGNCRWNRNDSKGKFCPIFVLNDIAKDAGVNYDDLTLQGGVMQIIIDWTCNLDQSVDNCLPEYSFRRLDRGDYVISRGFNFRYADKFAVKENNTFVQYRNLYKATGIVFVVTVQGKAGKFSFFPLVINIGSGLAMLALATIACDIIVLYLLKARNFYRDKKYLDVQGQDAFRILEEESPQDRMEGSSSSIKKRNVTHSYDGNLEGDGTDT

LymP2X [1] = molecular target: T2, LymP2X (Lymnaea stagnalis, UniProt K7QP77)
T2 construct: full-length, 435 residues, shorter clone starting at second in-frame ATG; cRNA injected in Xenopus oocytes; homotrimer expected (P2X family); differs from contig FX193730 in 50 residues of the cysteine-rich head (possible alternative exon)
T2 sequence (K7QP77 1-435): T1 sequence (K7QP77 1-435 INS0MTTK)

LymP2X [2] = molecular target: T2, LymP2X; remark: listed apart in the source
LymP2X [3] = molecular target: T2, LymP2X; conditions: weak agonist; pH 7.5, 1.8 mM Ba2+ in place of Ca2+, -60 mV

For Nc1ncnc2c1ncn2[C@@H]1O[C@H](COP(=O)(O)OP(=O)(O)OP(=O)(O)O)[C@@H](O)[C@H]1O [ATP], the EC50 (LymP2X clone 11) was 5.8 µM and the EC50 (LymP2X [1]) was 6.2 µM.

Cc1nc(N=Nc2ccc(S(=O)(=O)O)cc2S(=O)(=O)O)c(COP(=O)(O)O)c(C=O)c1O [PPADS] was tested, and the IC50 (LymP2X [2]) was 8.1 µM.

In the case of Nc1ncnc2c1ncn2[C@@H]1O[C@H](COP(=O)(O)CP(=O)(O)OP(=O)(O)O)[C@@H](O)[C@H]1O [αβmeATP], the “% of 10 μM ATP response at 100 μM” value (LymP2X [3]) is reported as 36.9±10.6%.

For Nc1ncnc2c1ncn2[C@@H]1O[C@H](COP(=O)(O)OP(=O)(O)OP(=O)(O)O)[C@@H](OC(=O)c2ccc(C(=O)c3ccccc3)cc2)[C@H]1O [BzATP], the EC50 (LymP2X [1]) was 2.4 µM.

Cc1ccc(C(=O)Nc2ccc(S(=O)(=O)O)c3cc(S(=O)(=O)O)cc(S(=O)(=O)O)c23)cc1NC(=O)c1cccc(NC(=O)Nc2cccc(C(=O)Nc3cc(C(=O)Nc4ccc(S(=O)(=O)O)c5cc(S(=O)(=O)O)cc(S(=O)(=O)O)c45)ccc3C)c2)c1 [suramin] was tested, and the IC50 (LymP2X [2]) was 27.4 µM.
